ChEMBL document CHEMBL5584231, “Rational design of a new short anticancer peptide with good potential for cancer treatment” (Eur J Med Chem, 2024)
Residues, ends and D or L forms follow the SMILES beside them.

Tests used:
HeLa = experiment: Cytotoxicity against human HeLa cells assessed as inhibition of cell growth incubated for 1 hr by MTT assay; format: functional, cell-based
MCF7 = experiment: Cytotoxicity against human MCF7 cells assessed as inhibition of cell growth incubated for 1 hr by MTT assay; format: functional, cell-based; conditions: MCF7, 1 h
[1] = Cytotoxicity against RG cells (unknown origin) assessed as inhibition of cell growth incubated for 1 hr by MTT assay; format: functional, cell-based
A549 = experiment: Cytotoxicity against human A549 cells assessed as inhibition of cell growth incubated for 1 hr by MTT assay; format: functional, cell-based; conditions: A549, 1 h
[2] = Cytotoxicity against HK-2 cells assessed as inhibition of cell growth incubated for 1 hr by MTT assay; format: toxicity, cell-based; conditions: human
[3] = Therapeutic index, ratio of HC10 for mouse RBC to IC50 for cytotoxicity against human HeLa cells; format: toxicity, cell-based; conditions: mouse RBC and HeLa cells, read-out: TI
[4] = Therapeutic index, ratio of HC10 for mouse RBC to IC50 for cytotoxicity against human MCF7 cells; format: toxicity, cell-based; conditions: mouse RBC and MCF7 cells, read-out: TI
[5] = Therapeutic index, ratio of HC10 for mouse RBC to IC50 for cytotoxicity against RG cells (unknown origin); format: toxicity, cell-based; conditions: mouse RBC and RG cells, read-out: TI
[6] = Therapeutic index, ratio of HC10 for mouse RBC to IC50 for cytotoxicity against human A549 cells; format: toxicity, cell-based; conditions: mouse RBC and A549 cells, read-out: TI

Structure (SMILES)	IC50 (HeLa) [µM]	IC50 (MCF7) [µM]	IC50 [1] [µM]	IC50 (A549) [µM]	IC50 at 1 h [2] [µM]	selectivity ratio [3]	selectivity ratio [4]	selectivity ratio [5]	selectivity ratio [6]
CC(C)C[C@H](NC(=O)[C@H](CC(C)C)NC(=O)[C@H](CCCCN)NC(=O)[C@H](CCCCN)NC(=O)[C@H](CC(C)C)NC(=O)[C@H](CC(C)C)NC(=O)[C@H](CCCCN)NC(=O)[C@H](CCCCN)NC(=O)[C@H](CC(C)C)NC(=O)[C@H](CCC(=O)O)NC(=O)[C@H](CCCCN)NC(=O)[C@H](CCCCN)NC(=O)[C@H](CC(C)C)NC(=O)[C@@H](N)CC(C)C)C(N)=O (H-LLKKELKKLLKKLL-NH2)	14.4	21.4	24.1	17.3	37.3	12	8.02	7.14	9.94
CC(C)C[C@H](NC(=O)[C@H](CC(C)C)NC(=O)[C@H](CCCCN)NC(=O)[C@H](CCCCN)NC(=O)[C@H](CC(C)C)NC(=O)[C@H](CC(C)C)NC(=O)[C@H](CCCCN)NC(=O)[C@H](CCCCN)NC(=O)[C@H](CCC(=O)O)NC(=O)[C@H](CC(C)C)NC(=O)[C@H](CCCCN)NC(=O)[C@H](CCCCN)NC(=O)[C@H](CC(C)C)NC(=O)[C@@H](N)CC(C)C)C(N)=O (H-LLKKLEKKLLKKLL-NH2)	104	202	418	530	264	4.8	2.47	1.2	0.943
CC(C)C[C@H](NC(=O)[C@H](CC(C)C)NC(=O)[C@H](CCCCN)NC(=O)[C@H](CCCCN)NC(=O)[C@H](CC(C)C)NC(=O)[C@H](CC(C)C)NC(=O)[C@H](CCCCN)NC(=O)[C@H](CCC(=O)O)NC(=O)[C@H](CC(C)C)NC(=O)[C@H](CC(C)C)NC(=O)[C@H](CCCCN)NC(=O)[C@H](CCCCN)NC(=O)[C@H](CC(C)C)NC(=O)[C@@H](N)CC(C)C)C(N)=O (H-LLKKLLEKLLKKLL-NH2)	2.87	4.67	4.5	3.93	4.9	3.41	2.1	2.18	2.49
CC(C)C[C@H](NC(=O)[C@H](CC(C)C)NC(=O)[C@H](CCCCN)NC(=O)[C@H](CCCCN)NC(=O)[C@H](CC(C)C)NC(=O)[C@H](CC(C)C)NC(=O)[C@H](CCC(=O)O)NC(=O)[C@H](CCCCN)NC(=O)[C@H](CC(C)C)NC(=O)[C@H](CC(C)C)NC(=O)[C@H](CCCCN)NC(=O)[C@H](CCCCN)NC(=O)[C@H](CC(C)C)NC(=O)[C@@H](N)CC(C)C)C(N)=O (H-LLKKLLKELLKKLL-NH2)	4.54	3.95	4.74	3.75	3.8	1.15	1.32	1.1	1.39
CC(C)C[C@H](NC(=O)[C@H](CC(C)C)NC(=O)[C@H](CCCCN)NC(=O)[C@H](CCCCN)NC(=O)[C@H](CC(C)C)NC(=O)[C@H](CCC(=O)O)NC(=O)[C@H](CCCCN)NC(=O)[C@H](CCCCN)NC(=O)[C@H](CC(C)C)NC(=O)[C@H](CC(C)C)NC(=O)[C@H](CCCCN)NC(=O)[C@H](CCCCN)NC(=O)[C@H](CC(C)C)NC(=O)[C@@H](N)CC(C)C)C(N)=O (H-LLKKLLKKELKKLL-NH2)	120	181	217	482	146	4.18	2.76	2.3	1.04
CC(C)C[C@H](NC(=O)[C@H](CC(C)C)NC(=O)[C@H](CCCCN)NC(=O)[C@H](CCCCN)NC(=O)[C@H](CCC(=O)O)NC(=O)[C@H](CC(C)C)NC(=O)[C@H](CCCCN)NC(=O)[C@H](CCCCN)NC(=O)[C@H](CC(C)C)NC(=O)[C@H](CC(C)C)NC(=O)[C@H](CCCCN)NC(=O)[C@H](CCCCN)NC(=O)[C@H](CC(C)C)NC(=O)[C@@H](N)CC(C)C)C(N)=O (H-LLKKLLKKLEKKLL-NH2)	43.7	97.1	78.9	87.1	92.5	11.4	5.15	6.34	5.74
